The values below come from patent US9828396B2, “Alkyne compounds for treatment of complement mediated disorders” (Achillion Pharmaceuticals, Inc., priority 2014, dated 2017).

Each structure is given as a SMILES string.

Chain of Human factor D (P00746 26-253): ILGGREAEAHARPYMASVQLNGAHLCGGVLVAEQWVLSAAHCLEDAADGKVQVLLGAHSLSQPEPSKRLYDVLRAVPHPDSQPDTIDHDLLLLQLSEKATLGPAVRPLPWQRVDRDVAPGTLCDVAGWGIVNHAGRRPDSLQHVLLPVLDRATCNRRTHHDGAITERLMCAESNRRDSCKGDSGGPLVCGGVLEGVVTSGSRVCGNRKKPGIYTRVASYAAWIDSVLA

The assay concerns the target Human factor D (Homo sapiens (Human), UniProt P00746). The assay can be described thus: Human Factor D Assay. The class given is biochemical. The conditions noted are these: Human factor D 80 nM, substrate Z-L-Lys-SBzl, assay of Example 12. The method, boiled down:
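Serum-purified human factor D (80 nM final) was preincubated 5 min at room temperature with compound in 50 mM Tris, 1 M NaCl, pH 7.5. Z-L-Lys-SBzl and DTNB (100 μM each) were added and OD405 followed kinetically over 30 min; IC50 from non-linear regression of percent inhibition.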
Regarding `NC(=O)c1nn(CC(=O)N2C[C@H](F)C[C@H]2C(=O)Nc2cc(C(F)(F)F)cc(Cl)n2)c2ccc(C#Cc3ncc(F)cn3)cc12` [Compound 74, 1-(2-((2S,4R)-2-(6-chloro-4-(trifluoromethyl)pyridin-2-ylcarbamoyl)-4-fluoropyrrolidin-1-yl)-2-oxoethyl)-5-((5-fluoropyrimidin-2-yl)ethynyl)-1H-indazole-3-carboxamide], the IC50 was < 1000 nM. As for `NC(=O)c1nn(CC(=O)N2C[C@H](F)C[C@H]2C(=O)Nc2cccc(Cl)n2)c2ccc(C#Cc3cccnn3)cc12` [Compound 75, 1-(2-((2S,4R)-2-(6-chloropyridin-2-ylcarbamoyl)-4-fluoropyrrolidin-1-yl)-2-oxoethyl)-5-(pyridazin-3-ylethynyl)-1H-indazole-3-carboxamide], the IC50 is < 1000 nM. For the compound `NC(=O)c1nn(CC(=O)N2C[C@H](F)C[C@H]2C(=O)Nc2ccc(C(F)(F)F)c(Cl)n2)c2ccc(C#Cc3ncc(F)cn3)cc12` [Compound 76, 1-(2-((2S,4R)-2-(6-chloro-5-(trifluoromethyl)pyridin-2-ylcarbamoyl)-4-fluoropyrrolidin-1-yl)-2-oxoethyl)-5-((5-fluoropyrimidin-2-yl)ethynyl)-1H-indazole-3-carboxamide], the IC50 was < 1000 nM. For `NC(=O)c1nn(CC(=O)N2[C@@H]3C[C@@H]3C[C@H]2C(=O)Nc2cccc(Cl)n2)c2ccc(C#Cc3cccnn3)cc12` [Compound 77, 1-(2-((1R,3S,5R)-3-(6-chloropyridin-2-ylcarbamoyl)-2-azabicyclo[3.1.0]hexan-2-yl)-2-oxoethyl)-5-(pyridazin-3-ylethynyl)-1H-indazole-3-carboxamide], the IC50 is < 1000 nM.

For the compound `COc1nc(C#Cc2ccc3c(c2)c(C(N)=O)nn3CC(=O)N2C[C@H](F)C[C@H]2C(=O)Nc2cccc(-c3ccccc3Cl)c2F)ncc1F` [Compound 78, 1-(2-((2S,4R)-2-(2′-chloro-2-fluorobiphenyl-3-ylcarbamoyl)-4-fluoropyrrolidin-1-yl)-2-oxoethyl)-5-((5-fluoro-4-methoxypyrimidin-2-yl)ethynyl)-1H-indazole-3-carboxamide], the IC50 was < 1000 nM. Regarding `NC(=O)c1nn(CC(=O)N2C[C@H](F)C[C@H]2C(=O)Nc2cccc(-c3ccccc3Cl)c2F)c2ccc(C#Cc3ccnnc3)cc12` [Compound 79, 1-(2-((2S,4R)-2-(2′-chloro-2-fluorobiphenyl-3-ylcarbamoyl)-4-fluoropyrrolidin-1-yl)-2-oxoethyl)-5-(pyridazin-4-ylethynyl)-1H-indazole-3-carboxamide], the IC50 was < 1000 nM. Regarding `NC(=O)c1nn(CC(=O)N2C[C@H](F)C[C@H]2C(=O)Nc2cccc(Cl)n2)c2ccc(C#Cc3ccnnc3)cc12` [Compound 80, 1-(2-((2S,4R)-2-(6-chloropyridin-2-ylcarbamoyl)-4-fluoropyrrolidin-1-yl)-2-oxoethyl)-5-(pyridazin-4-ylethynyl)-1H-indazole-3-carboxamide], the IC50 was < 1000 nM. Regarding `NC(=O)c1nn(CC(=O)N2C[C@H](F)C[C@H]2C(=O)Nc2nc(Cl)ccc2F)c2ccc(C#Cc3ncc(F)cn3)cc12` [Compound 81, 1-(2-((2S,4R)-2-(6-chloro-3-fluoropyridin-2-ylcarbamoyl)-4-fluoropyrrolidin-1-yl)-2-oxoethyl)-5-((5-fluoropyrimidin-2-yl)ethynyl)-1H-indazole-3-carboxamide], the IC50 is < 1000 nM. Next, `NC(=O)c1nn(CC(=O)N2C[C@H](F)C[C@H]2C(=O)Nc2cccc(Cl)n2)c2ccc(C#Cc3cnccn3)cc12` [Compound 82, 1-(2-((2S,4R)-2-(6-chloropyridin-2-ylcarbamoyl)-4-fluoropyrrolidin-1-yl)-2-oxoethyl)-5-(pyrazin-2-ylethynyl)-1H-indazole-3-carboxamide]: < 1000 nM; `NC(=O)c1nn(CC(=O)N2C[C@H](F)C[C@H]2C(=O)Nc2cccc(-c3ccccc3Cl)c2F)c2ccc(C#Cc3cnccn3)cc12` [Compound 83, 1-(2-((2S,4R)-2-(2′-chloro-2-fluorobiphenyl-3-ylcarbamoyl)-4-fluoropyrrolidin-1-yl)-2-oxoethyl)-5-(pyrazin-2-ylethynyl)-1H-indazole-3-carboxamide]: < 1000 nM. Next, `NC(=O)c1nn(CC(=O)N2C[C@H](F)C[C@H]2C(=O)Nc2cncc(-c3ccccc3Cl)n2)c2ccc(C#Cc3ncc(F)cn3)cc12` [Compound 85, 1-(2-((2S,4R)-2-(6-(2-chlorophenyl)pyrazin-2-ylcarbamoyl)-4-fluoropyrrolidin-1-yl)-2-oxoethyl)-5-((5-fluoropyrimidin-2-yl)ethynyl)-1H-indazole-3-carboxamide]: < 1000 nM; `NC(=O)c1nn(CC(=O)N2C[C@H](F)C[C@H]2C(=O)Nc2cncc(-c3c(F)cccc3Cl)n2)c2ccc(C#Cc3ncc(F)cn3)cc12` [Compound 86, 1-(2-((2S,4R)-2-(6-(2-chloro-6-fluorophenyl)pyrazin-2-ylcarbamoyl)-4-fluoropyrrolidin-1-yl)-2-oxoethyl)-5-((5-fluoropyrimidin-2-yl)ethynyl)-1H-indazole-3-carboxamide]: < 1000 nM.

Take `NC(=O)c1nn(CC(=O)N2C[C@H](F)C[C@H]2C(=O)Nc2cncc(-c3cc(F)c(F)cc3Cl)n2)c2ccc(C#Cc3ncc(F)cn3)cc12` [Compound 87, 1-(2-((2S,4R)-2-(6-(2-chloro-4,5-difluorophenyl)pyrazin-2-ylcarbamoyl)-4-fluoropyrrolidin-1-yl)-2-oxoethyl)-5-((5-fluoropyrimidin-2-yl)ethynyl)-1H-indazole-3-carboxamide]: the 50% inhibitory concentration (IC50) was < 1000 nM.

Take `NC(=O)c1nn(CC(=O)N2C[C@H](F)C[C@H]2C(=O)Nc2cccc(Cl)n2)c2ccc(C#Cc3ncc(F)cn3)cc12` [Compound 88, 1-(2-((2S,4R)-2-(6-chloropyridin-2-ylcarbamoyl)-4-fluoropyrrolidin-1-yl)-2-oxoethyl)-5-((5-fluoropyrimidin-2-yl)ethynyl)-1H-indazole-3-carboxamide]: the IC50 is < 1000 nM.

Turning to `NC(=O)c1nn(CC(=O)N2C[C@H](F)C[C@H]2C(=O)Nc2cncc(Br)n2)c2ccc(C#Cc3cnccn3)cc12` [Compound 89, 1-(2-((2S,4R)-2-(6-bromopyrazin-2-ylcarbamoyl)-4-fluoropyrrolidin-1-yl)-2-oxoethyl)-5-(pyrazin-2-ylethynyl)-1H-indazole-3-carboxamide], the IC50 is < 1000 nM. `CC(=O)c1nn(CC(=O)N2C[C@H](F)C[C@H]2C(=O)Nc2cccc(Br)n2)c2ccc(C#Cc3ncc(F)cn3)cc12` [Compound 90, (2S,4R)-1-(2-(3-acetyl-5-((5-fluoropyrimidin-2-yl)ethynyl)-1H-indazol-1-yl)acetyl)-N-(6-bromopyridin-2-yl)-4-fluoropyrrolidine-2-carboxamide]: the IC50 was < 1000 nM. To `Cc1cnc(C#Cc2ccc3c(c2)c(C(N)=O)nn3CC(=O)N2C[C@H](F)C[C@H]2C(=O)Nc2cccc(Br)n2)nc1` [Compound 91, 1-(2-((2S,4R)-2-(6-bromopyridin-2-ylcarbamoyl)-4-fluoropyrrolidin-1-yl)-2-oxoethyl)-5-((5-methylpyrimidin-2-yl)ethynyl)-1H-indazole-3-carboxamide] belongs < 1000 nM.

For the compound `COc1ncc(C#Cc2ccc3c(c2)c(C(N)=O)nn3CC(=O)N2C[C@H](F)C[C@H]2C(=O)Nc2cccc(Br)n2)cn1` [Compound 92, 1-(2-((2S,4R)-2-(6-bromopyridin-2-ylcarbamoyl)-4-fluoropyrrolidin-1-yl)-2-oxoethyl)-5-((2-methoxypyrimidin-5-yl)ethynyl)-1H-indazole-3-carboxamide], the IC50 was < 1000 nM.
